Read-outs that look alike come from different tables or passages of the source.
How the values were obtained:
[1] = Measurement of antioxidant activity using Lard oil; conditions: 60° C. dark room, when weight no longer changed, NMR spectroscopy
Protocol: 2.0 g of Lard oil was poured on petri-dish, and here 40 mmol of each of tocopherol, preparation example 1 or tocopherol acetate was added. Then, the mixture solution was maintained in a dark room of 60° C. The oxidation ratio of Lard oil was determined by daily measurement of the change in weight. The less is the changeability in weight of Lard oil, the stronger is the antioxidant ability, because the increase in weight of Lard oil is related to the oxidation of Lard oil.
In the meantime, when the change in weight of Lard oil was not observed any longer, the oxidation ratio was determined by using NMR spectroscopy.

[2] = Measurement of antioxidant activity using linoleic acid; conditions: 60° C. dark room, when weight no longer changed, NMR spectroscopy
Protocol: 2.0 g of pure linoleic acid was poured on a petri-dish, and here 40 mmol of each of tocopherol, preparation example 1 or tocopherol acetate was added. Then, the mixture solution was maintained in a dark room of 60° C. The oxidation ratio of linoleic oil was measured by daily measurement of the change in weight. The less is the changeability in weight of linoleic acid, the stronger is the antioxidant ability, because the increase in weight of linoleic acid is related to the oxidation of linoleic oil.
In the meantime, when the change in weight of linoleic acid was not observed any longer, the oxidation ratio was determined by using NMR spectroscopy.

[3] = tested on: Fibroblast cells of infant; conditions: 24 hours, none-treated sample = 100
Protocol: The effect on promoting biosynthesis of collagen was examined in vitro for assaying the effect of the present invention on skin, comparing to 3-amino propane phosphate.
Fibroblast cells of infant were inoculated on 24-wells(10^5 cells/well). They were washed with PBS once. And then, preparation example 1 and 3-aminopropane phosphate as a control were treated by the concentration shown Table 3, and were incubated at CO2 incubator for 24 hours. Each supernatant was collected, and the variation of procollagen was measured by using procollangen type (I) ELISA kit. The value of biosynthesis activity was calculated by comparing to 100, the value of none-treated sample.

[4] = 60° C., in cetylethyl-hexanoate; for Residual ration(%): HPLC
Protocol: Each 3 g of preparation example 1 product and tocopherol was dissolved with 100 ml of cetylethyl-hexanoate. […] Then, residual ratio of each compound was analyzed by using HPLC. Here, phenyl column, eluate solution of 70% aqueous THF solution including 10 mM SDS and 50 mM H3PO4, flow rate of 1 ml/min and detection of 286 nm was used as HPLC analysis condition of preparation example 1. And ODS column, MeOH as eluate solution, flow rate of 1 ml/min and detection of 290 nm was used as HPLC analysis condition of tocopherol for control.

[5] = 60° C., in cetylethyl-hexanoate, six months, unaided eye
[6] = tested on: mice; conditions: oral, 1 ml/kg of 10% solution in squalene
Protocol: (§1) If the tocopherol derivatives should be used as cosmetic ingredient, their safety in the living body is very important. […] The product of Preparation Example 1 was dissolved in squalene to produce 10% of solution sample, and the sample was employed in safety experiments.
Acute oral toxicity test in mice: 1 ml/kg of the sample was administrated to total ten (10) mice (male and female were separately five (5) mice).

[7] = tested on: mice; conditions: percutaneous once, 0.2 ml/kg of 10% solution in squalene, two weeks of observation
Protocol: as §1
(§2) 1-2. Acute dermal toxicity test in mice and rabbits: 0.2 ml/kg of the sample was administrated percutaneously once to a total of ten (10) mice (five male and five female).

[8] = tested on: rabbits; conditions: same experiment as in mice (percutaneous, 10% solution in squalene)
Protocol: as §1, §2

[9] = tested on: rabbits; conditions: 0.1 ml of 10% solution in squalene on depilated back site
Protocol: as §1
1-3. Primary skin irritation test: 0.1 ml of test sample was applied to back site (2.5 cm×2.5 cm) of each of 12 rabbits depilated 24 hours before.

[10] = tested on: rabbits; conditions: 0.1 ml of sample diluted with saline to 2%
Protocol: as §1
1-4. Eye irritation test: The sample was diluted with saline to produce 2% of test sample, and 0.1 ml of the diluted solution was applied to the eye of each of nine (9) rabbits.

[11] = tested on: Guinea pigs; conditions: 10% solution in squalene
Protocol: as §1
1-5. Skin sensitization test: Test was carried out for six (6) (three males and three females) Guinea pigs according to Maggnusson and Kligman's procedure.

[12] = tested on: healthy women; conditions: human patch test, healthy women aged 20~28
Protocol: as §1
1-6. Human patch test: Human patch test was carried out for thirty (30) healthy women aged 20˜28 according to CTFA Guideline(The Cosmetic Toiletry and Fragrance Association, INC., Washington, D.C. 20036, 1991).

[13] = tested on: subjects; conditions: repeat insult human patch test
Protocol: as §1
1-7. Repeat Insult Human Patch Test: Human patch test was carried out for subjects according to CTFA Guideline.

[14] = tested on: phosphodiesterase; conditions: 37° C., 24 hours, 1% aqueous solution of 1:9 mixture with Tween 20, HPLC
Protocol: The phosphodiesterase was used as biological enzyme, and 1% aqueous solution of 1:9 mixture of preparation example 1 and Tween 20 was prepared to use as an assay sample. After the stirring mixture of the above enzyme, assay sample and medium solution at a temperature of 37° C. for 24 hours, analysis for the hydrolysis ratio of tocopherol derivatives was carried out by using HPLC(MeOH:THF=9:1, R.T.=13.695 min, tocopherol).

Compound	oxidation ratio of Lard oil [1]	oxidation ratio of linoleic acid [2]	Residual ration(%) ([4]; Month 1)	Residual ration(%) ([4]; Month 2)	Residual ration(%) ([4]; Month 3)	Residual ration(%) ([4]; Month 4)	Residual ration(%) ([4]; Month 5)	Residual ration(%) ([4]; Month 6)	Residual ration(%) ([4]; Month head blank)	coloration degree [5]	also measured
CC(=O)Oc1c(C)c(C)c2c(c1C)CCC(C)(CCC[C@H](C)CCC[C@H](C)CCCC(C)C)O2 (some centres unmarked) [tocopherol acetate]	about 90%	about 83%	–	–	–	–	–	–	–	–	–
NCCCOP(=O)(O)O [3-aminopropane phosphate, reference compound]	–	–	–	–	–	–	–	–	–	–	Biosynthesis activity (%) ([3]; concentration 10^−4 %): 146%
tocopherol [reference compound]	about 90%	about 83%	100	97	92	88	82	76	100	increase in coloration at four (4) months or more	–
Cc1c(C)c2c(c(C)c1OP(=O)(O)OCCCN)CCC(C)(CCCC(C)CCCC(C)CCCC(C)C)O2 (stereo not drawn) [Preparation Example 1, 3-aminopropyl-α-tocopherol phosphate]	about 5%	about 3%	100	100	100	100	100	100	100	did not change in color	death of mice [6]: no death of mice was observed; difference in the body weight after administration [6]: insignificant; abnormal symptoms or changes in body weight [7]: no mice administered with the sample exhibited abnormal symptoms or changes in body weight; abnormal symptom and change of body weight [8]: No abnormal symptom and change of body weight were observed; skin irritation [9]: no skin irritation was observed; eye irritation [10]: no eye irritation on cornea, iris and conjunctiva was observed; skin abnormality (sensitization) [11]: no skin abnormality such as erythema, edema or freckles was observed; primary irritation response [12]: primary irritation response was not observed; repeat irritation / sensitive irritation [13]: no repeat irritation or no sensitive irritation was observed; Biosynthesis activity (%) ([3]; concentration 10^−6 %): 141%; stability by quantitative analysis (NMR Spectroscopy), compared with tocopherol [4]: more stable; hydrolysis ratio [14]: 40%

Reference: patent US6410752B1, “Tocopherol derivatives and method for preparation thereof” (Pacific Corporation, priority 2000, dated 2002)
